In patent US7652153B2, “Caspase inhibitors and uses thereof” (Vertex Pharmaceuticals Incorporated, priority 2004, dated 2010):

Legend:
caspase-1 = molecular target: T1, caspase-1 (Homo sapiens, UniProt P29466); test: Caspase-1 enzyme inhibition (Ki, method of Margolin et al.); assay type: biochemical; conditions: Suc-YVAD-pNA substrate 80 μM, 37° C., pH 7.5; read-out: Ki C1
T1 sequence (P29466 120-297 limits assumed): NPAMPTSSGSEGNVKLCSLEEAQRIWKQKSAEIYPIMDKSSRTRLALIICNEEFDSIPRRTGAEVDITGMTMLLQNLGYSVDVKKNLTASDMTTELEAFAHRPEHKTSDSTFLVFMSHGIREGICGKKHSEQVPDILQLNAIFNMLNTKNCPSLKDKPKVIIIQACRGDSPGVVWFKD
T1 sequence (P29466 317-404 limits assumed): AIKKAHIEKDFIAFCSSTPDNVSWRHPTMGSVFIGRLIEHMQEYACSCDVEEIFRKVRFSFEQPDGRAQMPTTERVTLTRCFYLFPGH
Protocol: (§1) Compounds of this invention may be tested using the methods described below.
(§2) In Vitro Assays Enzyme Inhibition
(§3) Ki values for test compounds with caspase-1 and caspase-8 were obtained by the method of Margolin et al. (J. Biol. Chem., 272 pp. 7223-7228 (1997)). Other caspases may be assayed similarly (see, e.g., WO 99/47545). Assays were performed in 10 mM Tris (Sigma Corp, St Louis Mo.) pH 7.5, 1 mM Dithiothreitol (DTT, Research Organic INC, Cleveland, Ohio) and 0.1% CHAPS (Pierce, Rockford Ill.) at 37° C. For caspase-3, a solution of 8% glycerol was added to the assay buffer to improve enzyme stability. A 65 μL aliquot of the assay buffer and 5 μL aliquot of the appropriate dilutions of inhibitor in DMSO where pipetted into a 96 well plate, treated with 10 μL of caspase, then diluted in assay buffer (0.5-40 nM active protein by active site titration). A control containing DMSO but no compound was included for each determination. The plates were then incubated for 15 minutes at 37° C., before addition of the appropriate substrate (20 μL, final concentration 1-4×KM, final assay volume 100 μL) to initiate the reaction. Reaction rates were measured at 37° C. either by following the time dependant increase in absorbance at 405 nm (for the pNA substrates) or in fluorescence (Ex 390, Em 460) (for the AMC substrates). The rates obtained were plotted against inhibitor concentration and the data fit to the Morrison tight-binding equation for competitive inhibitors (Morrison, J. F., Biochem. Biophys. Acta, 185 pp. 269-286 (1969)). The substrates used for the individual assays were as follows:
Caspase-1 Suc-YVAD-pNA (Bachem, King of Prussia, Pa.) (final concentration in the assay 80 μM);

caspase-8 = caspase-8 (Homo sapiens, UniProt Q14790); test: Caspase-8 enzyme inhibition (Ki, method of Margolin et al.); assay type: biochemical; conditions: Ac-DEVD-pNA substrate 80 μM, 37° C., pH 7.5; read-out: Ki C8
Protocol: as §1, §2, §3
Caspase-8 Ac-DEVD-pNA (Bachem, King of Prussia, Pa.) (final concentration in assay 80 μM).

Chain of caspase-8 (Q14790 217-374 limits assumed, species assumed): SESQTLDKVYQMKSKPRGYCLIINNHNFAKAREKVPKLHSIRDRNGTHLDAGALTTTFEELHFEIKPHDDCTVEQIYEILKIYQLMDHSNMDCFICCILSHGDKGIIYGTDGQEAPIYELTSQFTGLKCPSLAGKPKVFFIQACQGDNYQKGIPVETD
Chain of caspase-8 (Q14790 385-479 limits assumed, species assumed): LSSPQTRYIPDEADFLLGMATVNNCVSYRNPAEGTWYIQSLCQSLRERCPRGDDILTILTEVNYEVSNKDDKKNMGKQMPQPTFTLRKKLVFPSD

Structure (SMILES)	Ki (caspase-1) [nM]	Ki (caspase-8) [nM]
COc1cccc(C(=O)N[C@H](C(=O)N2CCC[C@H]2C(=O)N[C@H](C=O)CC(=O)O)C(C)C)c1C [II-1, (S,S,S)-(3S)-({1-[(2S)-(3-Methoxy-2-methyl-benzoylamino)-3-methyl-butyryl]-pyrrolidine-(2S)-carbonyl}-amino)-4-oxo-butyric acid]	< 10	< 10
COc1cccc(C(=O)N[C@H](C(=O)N2CCC[C@H]2C(=O)N[C@H](C=O)CC(=O)O)C(C)C)c1Cl [II-35, (S,S,S)-(3S)-({1-[(2S)-(2-chloro-3-methoxy-benzoylamino)-3-methyl-butyryl]-pyrrolidine-(2S)-carbonyl}-amino)-4-oxo-butyric acid]	< 10	< 10
COc1cccc(C(=O)N[C@H](C(=O)N2CCC[C@H]2C(=O)N[C@H](C=O)CC(=O)O)C(C)(C)C)c1Cl [II-30, (S,S,S)-(3S)-({1-[(2S)-(2-Chloro-3-methoxy-benzoylamino)-3,3-dimethyl-butyryl]-pyrrolidine-(2S)-carbonyl}-amino)-4-oxo-butyric acid]	< 10	< 10
COc1cccc(C(=O)N[C@@H](Cc2cscn2)C(=O)N2CCC[C@H]2C(=O)N[C@H](C=O)CC(=O)O)c1C [II-23, (S,S,S)-(3S)-({1-[(2S)-(3-Methoxy-2-methyl-benzoylamino)-3-thiazol-4-yl-propionyl]-pyrrolidine-(2S)-carbonyl}-amino)-4-oxo-butyric acid]	< 10	21 to 30
CC(C)[C@H](NC(=O)c1ccccc1C(F)(F)F)C(=O)N1CCC[C@H]1C(=O)N[C@H](C=O)CC(=O)O [II-27, (S,S,S)-(3S)-({1-[3-Methyl-(2S)-(2-trifluoromethyl-benzoylamino)-butyryl]-pyrrolidine-(2S)-carbonyl}-amino)-4-oxo-butyric acid]	< 10	< 10

More lines, now with the values ahead:

Ki (caspase-1) [nM]	Ki (caspase-8) [nM]	Structure (SMILES)
10 to 20	< 10	CC(C)[C@H](NC(=O)c1ccc(N)c(Cl)c1)C(=O)N1[C@@H]2CC[C@@H](C2)[C@H]1C(=O)N[C@H](C=O)CC(=O)O (stereo in doubt) [II-66, (3S)-({2-[(2S)-(4-Amino-3-chloro-benzoylamino)-3-methyl-butyryl]-2-(1S,4R)-aza-bicyclo[2.2.1]heptane-(3S)-carbonyl}-amino)-4-oxo-butyric acid]
< 10	10 to 20	CC(=O)Nc1ccc(C(=O)N[C@H](C(=O)N2CCC[C@H]2C(=O)N[C@H](C=O)CC(=O)O)C(C)C)c(Cl)c1 [II-40, (S,S,S)-(3S)-({1-[(2S)-(2-chloro-4-acetamido-benzoylamino)-3-methyl-butyryl]-pyrrolidine-(2S)-carbonyl}-amino)-4-oxo-butyric acid]
< 10	10 to 20	CCC(=O)Nc1ccc(C(=O)N[C@H](C(=O)N2[C@@H]3CC[C@@H](C3)[C@H]2C(=O)N[C@H](C=O)CC(=O)O)C(C)(C)C)cc1Cl (stereo in doubt) [II-63, (3S)-({2-[(2S)-(3-Chloro-4-propionylamino-benzoylamino)-3,3-dimethyl-butyryl]-2-(1S,4R)-aza-bicyclo[2.2.1]heptane-(3S)-carbonyl}-amino)-4-oxo-butyric acid]
< 10	< 10	COCc1ccc(C(=O)N[C@H](C(=O)N2CCC[C@H]2C(=O)N[C@H](C=O)CC(=O)O)C(C)(C)C)c(Cl)c1 [II-48, (S,S,S)-(3S)-({1-[(2S)-(2-chloro-4-methoxymethyl-benzoylamino)-3,3-dimethyl-butyryl]-pyrrolidine-(2S)-carbonyl}-amino)-4-oxo-butyric acid]
< 10	< 10	CCC(=O)Nc1ccc(C(=O)N[C@H](C(=O)N2C3CC[C@@H](C3)[C@H]2C(=O)NC(C=O)CC(=O)O)C(C)(C)C)c(Cl)c1 (stereo in doubt) [II-58, (3S)-({2-[(2S)-(2-Chloro-4-propionylamino-benzoylamino)-3,3-dimethyl-butyryl]-2-(1S,4R)-aza-bicyclo[2.2.1]heptane-(3S)-carbonyl}-amino)-4-oxo-butyric acid]
